Source: patent US20120214847A1, “2-[1-PHENYL-5-HYDROXY-4a-SUBSTITUTED-HEXAHYDROCYCLOPENTA[F]INDAZOL-5-YL]ETHYL PHENYL DERIVATIVES AS GLUCOCORTICOID RECEPTOR LIGANDS” (Merck Sharp & Dohme Corp., priority 2009, published 2012)
Where two headings read alike, the source gives them in different places.

Molecular target: T1, human GR (Homo sapiens, UniProt P04150)
T1 construct: naturally expresses the human GR; endogenous in cells
T1 sequence (P04150 1-777): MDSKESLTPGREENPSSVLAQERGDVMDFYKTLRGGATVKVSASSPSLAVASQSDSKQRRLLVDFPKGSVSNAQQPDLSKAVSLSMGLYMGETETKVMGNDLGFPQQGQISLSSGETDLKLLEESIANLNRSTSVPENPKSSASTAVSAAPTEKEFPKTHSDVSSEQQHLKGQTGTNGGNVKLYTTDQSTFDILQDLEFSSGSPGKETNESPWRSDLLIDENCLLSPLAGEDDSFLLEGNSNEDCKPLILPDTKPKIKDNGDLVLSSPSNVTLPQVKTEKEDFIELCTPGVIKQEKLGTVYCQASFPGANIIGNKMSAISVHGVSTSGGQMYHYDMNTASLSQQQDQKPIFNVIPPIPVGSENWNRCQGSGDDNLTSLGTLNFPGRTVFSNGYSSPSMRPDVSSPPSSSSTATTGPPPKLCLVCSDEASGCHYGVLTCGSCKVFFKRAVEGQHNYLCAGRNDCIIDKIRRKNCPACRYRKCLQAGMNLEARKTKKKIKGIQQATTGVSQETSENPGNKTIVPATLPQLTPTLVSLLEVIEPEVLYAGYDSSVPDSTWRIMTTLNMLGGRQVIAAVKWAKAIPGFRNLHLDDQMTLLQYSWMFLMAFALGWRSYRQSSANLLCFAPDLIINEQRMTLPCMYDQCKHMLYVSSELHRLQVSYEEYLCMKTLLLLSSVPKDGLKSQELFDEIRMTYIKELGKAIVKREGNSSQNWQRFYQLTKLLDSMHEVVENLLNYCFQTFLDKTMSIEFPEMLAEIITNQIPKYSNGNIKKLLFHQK
Test: Trans-activation modulation of glucocorticoid receptor (GRAMMER), MMTV-LUC reporter in A549 cells
Format: cell-based
Details: for Emax: read-out: Transactivation A549 Cells Grammer Emax (%); for EC50: IP = inflection point, read-out: Transactivation A549 Cells Grammer IP

[1] = A549, A549 cells, Emax relative to the activity obtained with 300 nM dexamethasone
[2] = A549 cells, Emax relative to the activity obtained with 300 nM dexamethasone

| SMILES | Emax [1] [%] | EC50 (A549 cells) [nM] | Emax [2] [%] | Transactivation A549 Cells Grammer Emax (%) [2] [%] |
| --- | --- | --- | --- | --- |
| NC(=O)c1c(C(F)(F)F)ccnc1CC[C@]1(O)CCC2=Cc3c(cnn3-c3ccc(F)cc3)C[C@@]21C1CC1 [Example 55, 2-{2-[(4aR,5R)-4a-Cyclopropyl-1-(4-fluorophenyl)-5-hydroxy-1,4,4a,5,6,7-hexahydrocyclopenta[f]indaozol-5-yl]ethyl}-4-(trifluoromethyl)pyridine-3-carboxamide] | 38 | 7 | – | – |
| NC(=O)Cc1ccccc1CC[C@]1(O)CCC2=Cc3c(cnn3-c3ccc(F)cc3)C[C@@]21C1CC1 [Example 56, 2-(2-{2-[(4aR,5S)-4a-Cyclopropyl-1-(4-fluorophenyl)-5-hydroxy-1,4,4a,5,6,7-hexahydrocyclopenta[f]indazol-5-yl]ethyl}phenyl)acetamide] | 9 | 14 | – | – |
| NC(=O)[C@H](F)c1c(F)cccc1CC[C@]1(O)CCC2=Cc3c(cnn3-c3ccc(F)cc3)C[C@@]21C1CC1 [Example 57, (2R)-2-(2-{2-[(4aR,5R)-4a-Cyclopropyl-1-(4-fluorophenyl)-5-hydroxy-1,4,4a,5,6,7-hexahydrocyclopenta[f]indazol-5-yl]ethyl}-6-fluorophenyl)-2-fluoroethanamide] | 11 | 31 | – | – |
| CS(=O)(=O)c1ccccc1CC[C@]1(O)CCC2=Cc3c(cnn3-c3ccc(F)cc3)C[C@@]21C1CC1 [Example 58, (4aR,5R)-4a-Cyclopropyl-1-(4-fluorophenyl)-5-{2-[2-(methylsulfonyl)phenyl]ethyl}-1,4,4a,5,6,7-hexahydrocyclopenta[f]indazol-5-ol] | 11 | 9 | – | – |
| CCS(=O)(=O)c1ccccc1CC[C@]1(O)CCC2=Cc3c(cnn3-c3ccc(F)cc3)C[C@@]21C1CC1 [Example 59, (4aR,5R)-4a-Cyclopropyl-5-{2-[2-(ethylsulfonyl)phenyl]ethyl}-1-(4-fluorophenyl)-1,4,4a,5,6,7-hexahydrocyclopenta[f]indazol-5-ol] | 7 | 35 | – | – |
| CC[C@]12Cc3cnn(-c4ccc(F)cc4)c3C=C1CC[C@@]2(O)CCc1cccc(F)c1CC(N)=O [Example 60, 2-(2-{2-[(4aS,5R)-4a-Ethyl-1-(4-fluorophenyl)-5-hydroxy-1,4,4a,5,6,7-hexahydrocyclopenta[f]indazol-5-yl]ethyl}-6-fluorophenyl)acetamide] | 39 | 38 | – | – |
| NC(=O)Cc1c(F)cccc1CC[C@]1(O)CCC2=Cc3c(cnn3-c3ccc(F)cc3)C[C@@]21C1CC1 [Example 61, 2-(2-{2-[(4aR,5R)-4a-Cyclopropyl-1-(4-fluorophenyl)-5-hydroxy-1,4,4a,5,6,7-hexahydrocyclopenta[f]indazol-5-yl]ethyl}-6-fluorophenyl)acetamide] | 13 | 21 | – | – |
| CC[C@]12Cc3cnn(-c4ccc(F)cc4)c3C=C1CC[C@@]2(O)CCc1ncccc1S(=O)(=O)C(C)C [Example 62, (4aS,5R)-4a-Ethyl-1-(4-fluorophenyl)-5-{2-[3-(propan-2-ylsulfonyl)pyridin-2-yl]ethyl}-1,4,4a,5,6,7-hexahydrocyclopenta[f]indazol-5-ol] | 43 | 35 | – | – |
| O=S(=O)(c1ccccc1CC[C@]1(O)CCC2=Cc3c(cnn3-c3ccc(F)cc3)C[C@@]21C1CC1)C1CC1 [Example 63, (4aR,5R)-4a-Cyclopropyl-5-{2-[2-(cyclopropylsulfonyl)phenyl]ethyl}-1-(4-fluorophenyl)-1,4,4a,5,6,7-hexahydrocyclopenta[f]indazol-5-ol] | 5 | 42 | – | – |
| CC[C@]12Cc3cnn(-c4ccc(F)cc4)c3C=C1CC[C@@]2(O)CCc1nccc(OC)c1CC(N)=O [Example 64, 2-(2-{2-[(4aS,5R)-4a-Ethyl-1-(4-fluorophenyl)-5-hydroxy-1,4,4a,5,6,7-hexahydrocyclopenta[f]indazol-5-yl]ethyl}-4-methoxypyridin-3-yl)acetamide] | 37 | 142 | – | – |
| CC[C@]12Cc3cnn(-c4ccc(F)cc4)c3C=C1CC[C@@]2(O)CCc1nccc(OC)c1C(F)C(N)=O (stereo partly drawn) [Example 65, 2-(2-{2-[(4aS,5R)-4a-Ethyl-1-(4-fluorophenyl)-5-hydroxy-1,4,4a,5,6,7-hexahydrocyclopenta[f]indazol-5-yl]ethyl}-4-methoxypyridin-3-yl)-2-fluoroacetamide] | – | 175 | 34 | – |
| COc1ccnc(CC[C@]2(O)CCC3=Cc4c(cnn4-c4ccc(F)cc4)C[C@@]32C2CC2)c1C(F)C(N)=O (stereo partly drawn) [Example 66, 2-(2-{2-[(4aR,5R)-4a-Cyclopropyl-1-(4-fluorophenyl)-5-hydroxy-1,4,4a,5,6,7-hexahydrocyclopenta[f]indazol-5-yl]ethyl}-4-methoxypyridin-3-yl)-2-fluoroacetamide] | – | 7 | 45 | – |
| CC[C@]12Cc3cnn(-c4ccc(F)cc4)c3C=C1CC[C@@]2(O)CC(O)c1ccccn1 (stereo partly drawn) [Example 68, (4aS,5R)-4a-Ethyl-1-(4-fluorophenyl)-5-[2-hydroxy-2-(pyridin-2-yl)ethyl]-1,4,4a,5,6,7-hexahydrocyclopenta[f]indazol-5-ol] | 21 | 49 | – | – |
| CC[C@]12Cc3cnn(-c4ccc(F)cc4)c3C=C1CC[C@@]2(O)CC(O)c1ncccc1Cl (stereo partly drawn) [Example 70, (4aS,5R)-5-[2-(3-Chloropyridin-2-yl)-2-hydroxyethyl]-4a-ethyl-1-(4-fluorophenyl)-1,4,4a,5,6,7-hexahydrocyclopenta[f]indazol-5-ol] | 31 | 83 | – | – |
| CC[C@]12Cc3cnn(-c4ccc(F)cc4)c3C=C1CC[C@@]2(O)CC1OC(=O)c2ccccc21 (stereo partly drawn) [Example 71, 3-{[(4aS,5R)-4a-Ethyl-1-(4-fluorophenyl)-5-hydroxy-1,4,4a,5,6,7-hexahydrocyclopenta[f]indazol-5-yl]methyl}-2-benzofuran-1(3H)-one] | 30 | 78 | – | – |
| CC[C@]12Cc3cnn(-c4ccc(F)cc4)c3C=C1CC[C@@]2(O)CC(O)c1cc(C#N)ccn1 (stereo partly drawn) [Example 72, 2-{2-[(4aS,5R)-4a-Ethyl-1-(4-fluorophenyl)-5-hydroxy-1,4,4a,5,6,7-hexahydrocyclopenta[f]indazol-5-yl]-1-hydroxyethyl}pyridine-4-carbonitrile] | 13 | 187 | – | – |
| CC[C@]12Cc3cnn(-c4ccc(F)cc4)c3C=C1CC[C@@]2(O)CC(O)c1cncc(F)c1 (stereo partly drawn) [Example 73, (4aS,5R)-4a-Ethyl-1-(4-fluorophenyl)-5-[2-(5-fluoropyridin-3-yl)-2-hydroxyethyl]-1,4,4a,5,6,7-hexahydrocyclopenta[f]indazol-5-ol] | 34 | 101 | – | – |
| CC[C@]12Cc3cnn(-c4ccc(F)cc4)c3C=C1CC[C@@]2(O)CC(O)c1c(F)ccnc1Cl (stereo partly drawn) [Example 74, (4aS,5R)-5-[2-(2-Chloro-4-fluoropyridin-3-yl)-2-hydroxyethyl]-4a-ethyl-1-(4-fluorophenyl)-1,4,4a,5,6,7-hexahydrocyclopenta[f]indazol-5-ol] | 41 | 65 | – | – |
| CC[C@]12Cc3cnn(-c4ccccc4)c3C=C1CC[C@@]2(O)CC(O)c1cc(C#N)ccn1 (stereo partly drawn) [Example 75, 2-{2-[(4aS,5R)-4a-Ethyl-5-hydroxy-1-phenyl-1,4,4a,5,6,7-hexahydrocyclopenta[f]indazol-5-yl]-1-hydroxyethyl}pyridine-4-carbonitrile] | 10 | 106 | – | – |
| CC[C@]12Cc3cnn(-c4ccc(F)cc4)c3C=C1CC[C@@]2(O)CC(O)c1ncccc1F (stereo partly drawn) [Example 76, (4aS,5R)-4a-Ethyl-1-(4-fluorophenyl)-5-[2-(3-fluoropyridin-2-yl)-2-hydroxyethyl]-1,4,4a,5,6,7-hexahydrocyclopenta[f]indazol-5-ol] | 31 | 142 | – | – |
| CC[C@]12Cc3cnn(-c4ccc(F)cc4)c3C=C1CC[C@@]2(O)CC(O)c1ncccc1F (stereo partly drawn) [Example 77, (4aS,5R)-4a-Ethyl-1-(4-fluorophenyl)-5-[2-(3-fluoropyridin-2-yl)-2-hydroxyethyl]-1,4,4a,5,6,7-hexahydrocyclopenta[f]indazol-5-ol] | – | 115 | – | 23 |
| OC(C[C@]1(O)CCC2=Cc3c(cnn3-c3ccc(F)cc3)C[C@@]21C1CC1)c1ccccn1 (stereo partly drawn) [Example 78, (4aR,5R)-4a-Cyclopropyl-1-(4-fluorophenyl)-5-[2-hydroxy-2-(pyridin-2-yl)ethyl]-1,4,4a,5,6,7-hexahydrocyclopenta[f]indazol-5-ol] | 13 | 66 | – | – |
